Test results reported in patent publication US20130267494A1, “1,4-OXAZEPANE DERIVATIVES” (priority 2010, published 2013).

Experiments:
[1] = molecular target: T1, human dopamine transporter (Homo sapiens, UniProt Q01959); experiment: Inhibitory action on human dopamine transporter ([3H]-dopamine uptake in CHO cells); format: cell-based; conditions: CHO, compound 1 μM; relative to inhibitory activity of 100 μM Nomifensine as 100%; read-out: inhibitory rate (%)
T1 construct: expressed in transfected cells
Procedure, shortened: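 CHO-K1 cells stably expressing human dopamine transporter, exposed to compound at 10 μM or 1 μM in HEPES-buffered saline with 0.5% BSA. [3H]-dopamine uptake measured over 60 min by scintillation counting. Activity expressed relative to 100 μM nomifensine as 100%.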

SD female rats = experiment: Measurement of urethral resistance increasing effect (leak point pressure, oral administration); format: in vivo, rat
Protocol: The urethral resistance increasing effect in rat was measured by a modified method of Matsumoto et al. (WO2009/063992) as follows. That is, SD female rats (CLEA Japan, Inc.) were anesthetized with isoflurane (1.0%; Abbott), and the spinal cord was transected at Th8-9 to avoid the voiding reflex. After laparotomy, an intravesical pressure measurement catheter and a saline infusion catheter (PE-100; Clay Adams) were inserted into the bladder. Thereafter, the abdomen of the rat was closed with aronalpha A “Sankyo” (Daiichi Sankyo). The rat with an inserted catheter was placed in a Bollman cage (KN-326 Bollman cage TYPE III; Natsume). The intravesical pressure measurement catheter was connected to a computer via a pressure transducer (DX-100; Nihon Koden), an amplifier (RPM-6008M; Nihon Koden/303638; SAN-EI), and a multi-channel data analyzer (MP150/MP100; Biopack), and changes in the intravesical pressure were recorded on a hard disc at a frequency of 100 samples/sec. The saline infusion catheter was connected to a 50 mL syringe (Terumo) filled with saline colored with Evans Blue (Wako). The saline was infused into the bladder from the 50 mL syringe filled with saline at a rate of 0.1 mL/sec by using an infusion pump (Kds100; KD Scientific). When the saline leaked from the urethral orifice, infusion was discontinued, and the saline in the bladder was released. The maximum pressure observed during infusion of saline into the bladder and leakage thereof was taken as an LPP (Leak point pressure) value. The measurement was repeated until the LPP value was stabilized, and an average of continuous three stable LPP values was taken as the result. In addition, the measurement of drug effect was started 1 hr after the animal was placed in the Bollman cage. The LPP value (Pre value) was measured, a drug was orally administered, and the measurement of LPP value (Post value) was again started 15 min, 30 min, 1 hr, 2 hr and 4 hr after administration. The urethral resistance increasing effect by the drug was shown by the difference between the LPP value (Post value) and LPP value (Pre value). The drug was orally administered at 2.0 mL/kg, using 0.5% methylcellulose as a vehicle. For detection of a significant difference in the urethral resistance increasing effect by the drug as compared to the vehicle, the following method was used. For comparison of 3 or more groups, the Williams' test was used for a parametric test, and the Shirley-Williams' test was used for a non-parametric test. For comparison of 2 groups, the Student's t-test was used for a parametric test, and the […] was used for a non-parametric test.

T1 sequence (Q01959 whole entry): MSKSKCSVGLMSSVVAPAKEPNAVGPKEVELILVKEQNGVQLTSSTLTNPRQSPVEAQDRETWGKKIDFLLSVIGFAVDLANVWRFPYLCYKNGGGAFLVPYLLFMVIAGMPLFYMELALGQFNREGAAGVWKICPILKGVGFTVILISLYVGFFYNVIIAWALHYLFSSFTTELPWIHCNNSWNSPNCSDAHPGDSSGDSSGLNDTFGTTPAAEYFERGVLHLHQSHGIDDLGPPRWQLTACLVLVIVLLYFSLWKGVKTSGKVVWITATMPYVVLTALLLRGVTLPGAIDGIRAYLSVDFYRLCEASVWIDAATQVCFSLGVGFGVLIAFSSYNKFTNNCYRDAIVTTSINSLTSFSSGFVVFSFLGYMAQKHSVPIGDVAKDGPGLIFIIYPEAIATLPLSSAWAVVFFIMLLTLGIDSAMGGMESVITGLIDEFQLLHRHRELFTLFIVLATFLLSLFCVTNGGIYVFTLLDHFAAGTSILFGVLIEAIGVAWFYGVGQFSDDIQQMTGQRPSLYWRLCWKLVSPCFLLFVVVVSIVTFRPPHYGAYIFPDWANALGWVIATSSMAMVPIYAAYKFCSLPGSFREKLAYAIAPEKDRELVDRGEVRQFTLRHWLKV

| Structure (SMILES) | inhibition at 1 µM [1] [%] | urethral resistance increasing effect (cmH2O) (SD female rats; 3.0 mg/kg oral, 15 min later) | urethral resistance increasing effect (cmH2O) (SD female rats; 3.0 mg/kg oral, 30 min later) | urethral resistance increasing effect (cmH2O) (SD female rats; 10.0 mg/kg oral, 15 min later) | urethral resistance increasing effect (cmH2O) (SD female rats; 10.0 mg/kg oral, 30 min later) |
| --- | --- | --- | --- | --- | --- |
| O=c1[nH]c(-c2ccccc2O[C@@H]2CNCCO[C@H]2c2ccc(Cl)c(F)c2)no1 [Example 577, 3-(2-{[(6R, 7S)-7-(4-chloro-3-fluoro-phenyl)-1,4-oxazepan-6-yl]oxy}phenyl)-1,2,4-oxadiazol-5(4H)-one] | 53 | 14.3 ± 3.0 | 13.1 ± 3.1 | 18.7 ± 1.8 | 15.4 ± 1.5 |
| O=c1[nH]c(-c2ncccc2O[C@@H]2CNCCO[C@H]2c2ccc(Cl)c(F)c2)no1 [Example 584, 3-(3-{[(6R, 7S)-7-(4-chloro-3-fluorophenyl)-1,4-oxazepan-6-yl]oxy}pyridin-2-yl)-1,2,4-oxadiazol-5(4H)-one] | 57 | 9.5 ± 3.5 | 7.2 ± 2.6 | 18.4 ± 3.4 | 16.2 ± 3.3 |
